# From patent EP3782997A1, “FUSED PYRIMIDINE COMPOUNDS AND PHARMACEUTICAL COMPOSITIONS THEREOF FOR THE TREATMENT OF FIBROTIC DISEASES” (Galapagos N.V., priority 2019, dated 2021)
# Biological target: hENPP2 (Homo sapiens, UniProt Q13822)
# Test: Human ENPP2 (hENPP2) biochemical assay using LPC as substrate
# Conditions: 150 µM LPC (palmitoyl 16:0), 37°C for 30 min
# Description: The principle of the assay conswasts in quantifying the released choline with an enzymatic method using choline oxidase and peroxidase. Choline oxydation by choline oxydase releases betaine and peroxide. The latter was quantified in presence of HRP that converts the peroxide detection agent TOOS (CAS# 82692-93-1) and 4-aminoantipyrine into quinoneimine dye. The appearance of quinoneimine dye was measured spectrophotometrically at 555 nm and was proportional to the amount of choline released by ENPP2. Inhibition of ENPP2 results in a decrease of the signal.
# Compound IC50 values were determined in a hENPP2 (UniProtKB/SwwassProt Sequence ref Q13822) biochemical assay using LPC as substrate.
# 5 µL of a dilution series of compound, starting from 50 µM highest concentration, 1/3 dilution, was added to the wells. hENPP2 was used at a final concentration of 1 µg/mL or 3 µg/mL (it will be appreciated by the skilled person that the potency read out was independent of the enzyme concentration). The enzyme was diluted in 50 mM Trwas-HCl pH 8.5, 500 mM NaCl, 5 mM KCl, 10 mM CaCl2, 0.1% fatty acid free BSA in a total volume of 10 µL. The reaction was started by the addition of 10 µL of 150 µM LPC (palmitoyl 16:0; Avanti Polar Lipids, Inc., Cat# 855675) diluted in the same buffer as described above and the mixture was incubated at 37°C for 30 min. The reaction was terminated and choline quantified by the addition of a 25 µL of a mixture containing 0.6 U/mL of choline oxidase, 0.6 U/mL of peroxydase, 1.8 mM TOOS, 1.2 mM amino-antipyrine, 20 mM EGTA (stop-developer solution) diluted in the buffer described above. […] was read on an Envision plate reader (PerkinElmer, Inc.) after an incubation of 30 min at room temperature (excitation 555 nm).
row,SMILES,IC50
1,"COC(=O)[C@H]1CN(C(=O)c2ccc3[nH]nnc3c2)CC[C@H]1N1Cc2cnc(Nc3cc(C)cc(C)c3)nc2C1 (racemic) [Cpd 137, methyl (3S,4R/3R,4S)-1-(1H-benzotriazole-5-carbonyl)-4-[2-(3,5-dimethylanilino)-5,7-dihydropyrrolo[3,4-d]pyrimidin-6-yl]piperidine-3-carboxylate]",0.01 to 100 nM
2,"Cc1cc(C)cc(Nc2ncc3c(n2)CN(C2CCN(C(=O)c4ccc5[nH]nnc5c4)C(C)C2)C3)c1 (racemic) [compound 34, 1H-benzotriazol-5-yl-[(2S,4S/2R,4R)-4-[2-(3,5-dimethylanilino)-5,7-dihydropyrrolo[3,4-d]pyrimidin-6-yl]-2-methyl-1-piperidyl]methanone]",0.01 to 100 nM
3,"Cc1cc(C)cc(Nc2ncc3c(n2)CN([C@H]2CCN(C(=O)c4ccc5[nH]nnc5c4)C[C@@H]2C)C3)c1 (racemic) [compound 99, 1H-benzotriazol-5-yl-[(3S,4S/3R,4R)-4-[2-(3,5-dimethylanilino)-5,7-dihydropyrrolo[3,4-d]pyrimidin-6-yl]-3-methyl-1-piperidyl]methanone]",0.01 to 100 nM
4,"Cc1cc(C)cc(Nc2ncc3c(n2)CN([C@@H]2CN(C(=O)c4ccc5[nH]nnc5c4)C[C@@H]2F)C3)c1 (racemic) [compound 102, 1H-benzotriazol-5-yl-[(3R,4S/3S,4R)-3-[2-(3,5-dimethylanilino)-5,7-dihydropyrrolo[3,4-d]pyrimidin-6-yl] -4-fluoro-pyrrolidin-1-yl]methanone]",500 to 1000 nM
5,"Cc1cc(C)cc(Nc2ncc3c(n2)CCN([C@H]2CN(C(=O)c4ccc5[nH]nnc5c4)C[C@H]2F)C3)c1 (racemic) [compound 103, 1H-benzotriazol-5-yl-[(3S,4R/3R,4S)-3-[2-(3,5-dimethylanilino)-7,8-dihydro-5H-pyrido[4,3-d]pyrimidin-6-yl] -4-fluoro-pyrrolidin-1-yl]methanone]",0.01 to 100 nM
6,"COc1cc2[nH]nnc2cc1C(=O)N1CC[C@H](N2Cc3cnc(Nc4cc(C)cc(C)c4)nc3C2)[C@H](C)C1 (racemic) [compound 119, [(3R,4S/3S,4R)-4-[2-(3,5-dimethylanilino)-5,7-dihydropyrrolo[3,4-d]pyrimidin-6-yl]-3-methyl-1-piperidyl]-(6-methoxy-1H-benzotriazol-5-yl)methanone]",0.01 to 100 nM
7,"Cc1cc(C)cc(Nc2ncc3c(n2)CN([C@H]2CCN(C(=O)c4cc5nn[nH]c5cc4F)C[C@H]2C)C3)c1 (racemic) [compound 148, [(3R,4S/3S,4R)-4-[2-(3,5-dimethylanilino)-5,7-dihydropyrrolo[3,4-d]pyrimidin-6-yl]-3-methyl-1-piperidyl]-(6-fluoro-1H-benzotriazol-5-yl)methanone]",0.01 to 100 nM
8,"Cc1cc(C)cc(Nc2ncc3c(n2)CN([C@H]2CCN(C(=O)c4ccnc(NS(C)(=O)=O)c4)C[C@H]2C)C3)c1 (racemic) [compound 167, N-[4-[(3R,4S/3S,4R)-4-[2-(3,5-dimethylanilino)-5,7-dihydropyrrolo[3,4-d]pyrimidin-6-yl]-3-methyl-piperidine-1-carbonyl]-2-pyridyl]methanesulfonamide]",0.01 to 100 nM
9,"Cc1cc(C)cc(Nc2ncc3c(n2)CN([C@H]2CCN(C(=O)c4c[nH]nn4)C[C@H]2C)C3)c1 (racemic) [compound 172, [(3R,4S/3S,4R)-4-[2-(3,5-dimethylanilino)-5,7-dihydropyrrolo[3,4-d]pyrimidin-6-yl]-3-methyl-1-piperidyl]-(1H-triazol-4-yl)methanone]",0.01 to 100 nM
10,"Cc1cc(C)cc(Nc2ncc3c(n2)CN(C2CCN(C(=O)c4ccc5[nH]nnc5c4)CC2O)C3)c1 (single isomer, unassigned) [Cpd 110, 1H-benzotriazol-5-yl-[4-[2-(3,5-dimethylanilino)-5,7-dihydropyrrolo[3,4-d]pyrimidin-6-yl]-3-hydroxy-1-piperidyl]methanone]",0.01 to 100 nM
11,"Cc1cc(C)cc(Nc2ncc3c(n2)CN(C2CN(C(=O)c4ccc5[nH]nnc5c4)CCC2O)C3)c1 (single isomer, unassigned) [Cpd 111, 1H-benzotriazol-5-yl-[3-[2-(3,5-dimethylanilino)-5,7-dihydropyrrolo[3,4-d]pyrimidin-6-yl]-4-hydroxy-1-piperidyl]methanone]",500 to 1000 nM
12,"COC(=O)[C@H]1CN(C(=O)c2ccc3[nH]nnc3c2)CC[C@@H]1N1Cc2cnc(Nc3cc(C)cc(C)c3)nc2C1 (single isomer, unassigned) [Cpd 136]",0.01 to 100 nM
13,"CCOc1cc2[nH]nnc2cc1C(=O)N1CC[C@H](N2Cc3cnc(Nc4cc(C)cc(C)c4)nc3C2)C[C@H]1C (single isomer, unassigned) [Cpd 138]",0.01 to 100 nM
14,"CCOc1cc2[nH]nnc2cc1C(=O)N1CC[C@@H](N2Cc3cnc(Nc4cc(C)cc(C)c4)nc3C2)C[C@H]1C (single isomer, unassigned) [Cpd 139]",0.01 to 100 nM
15,"C[C@@H]1C[C@@H](N2Cc3cnc(Nc4ccc(OC(F)(F)F)cc4)nc3C2)CCN1C(=O)c1ccc2[nH]nnc2c1 (single isomer, unassigned) [Cpd 164]",0.01 to 100 nM
16,"C[C@@H]1C[C@H](N2Cc3cnc(Nc4ccc(OC(F)(F)F)cc4)nc3C2)CCN1C(=O)c1ccc2[nH]nnc2c1 (single isomer, unassigned) [Cpd 169]",0.01 to 100 nM
17,"Cc1cc(C)cc(Nc2ncc3c(n2)CCN(C2CN(C(=O)c4ccc5[nH]c(=O)oc5c4)C2)C3)c1 [Cpd 1, 6-[3-[2-(3,S-dimethylanilino)-7,8-dihydro-5H-pyrido[4,3-d]pyrimidin-6-yl]azetidine-1-carbonyl]-3H-1,3-benzoxazol-2-one]",0.01 to 100 nM
18,"Cc1cc(C)cc(Nc2ncc3c(n2)CN(C2CN(C(=O)c4ccc5[nH]c(=O)oc5c4)C2)C3)c1 [Cpd 3, 6-[3-[2-(3,5-dimethylanilino)-5,7-dihydropyrrolo[3,4-d]pyrimidin-6-yl]azetidine-1-carbonyl]-3H-1,3-benzoxazol-2-one]",0.01 to 100 nM
19,"Cc1cc(C)cc(Nc2ncc3c(n2)CN(C2CN(C(=O)c4cccc(C(=O)O)c4)C2)C3)c1 [Cpd 25, 3-[3-[2-(3,5-dimethylanilino)-5,7-dihydropyrrolo[3,4-d]pyrimidin-6-yl]azetidine-1-carbonyl]benzoic acid]",> 1000 nM
20,"Cc1cc(C)nc(Nc2ncc3c(n2)CN(C2CCN(C(=O)c4ccc5[nH]c(=O)oc5c4)CC2)C3)c1 [Cpd 60, 6-[4-[2-[(4,6-dimethyl-2-pyridyl)amino]-5,7-dihydropyrrolo[3,4-d]pyrimidin-6-yl]piperidine-1-carbonyl]-3H-1,3-benzoxazol-2-one]",100 to 500 nM
21,"Cc1cc(C)cc(Nc2ncc3c(n2)CN(C2CCN(C(=O)c4cnc5[nH]nnc5c4)CC2)C3)c1 [Cpd 66, [4-[2-(3,5-dimethylanilino)-5,7-dihydropyrrolo[3,4-d]pyrimidin-6-yl]-1-piperidyl]-(3H-triazolo[4,5-b]pyridin-6-yl)methanone]",500 to 1000 nM
22,"Cc1cc(C)cc(Nc2ncc3c(n2)CN(C2CN(C(=O)c4cnc5nn[nH]c5c4)C2)C3)c1 [Cpd 67, [3-[2-(3,5-dimethylanilino)-5,7-dihydropyrrolo[3,4-d]pyrimidin-6-yl]azetidin-1-yl]-(1H-triazolo[4,5-b]pyridin-6-yl)methanone]",> 1000 nM
23,"Cc1cc(C)cc(Nc2ncc3c(n2)CCCN(C2CCN(C(=O)c4cnc5[nH]nnc5c4)CC2)C3)c1 [Cpd 76, [4-[2-(3,5-dimethylanilino)-5,7,8,9-tetrahydropyrimido[5,4-c]azepin-6-yl]-1-piperidyl]-(3H-triazolo[4,5-b]pyridin-6-yl)methanone]",> 1000 nM
24,"Cc1cc(C)cc(Nc2ncc3c(n2)CN(C2CN(C(=O)c4ccc5[nH]nnc5n4)C2)C3)c1 [Cpd 86, [3-[2-(3,5-dimethylanilino)-5,7-dihydropyrrolo[3,4-d]pyrimidin-6-yl]azetidin-1-yl]-(1H-triazolo[4,5-b]pyridin-5-yl)methanone]",0.01 to 100 nM
25,"Cc1cc(C)cc(Nc2ncc3c(n2)CCN(C2CCN(C(=O)c4ccc5[nH]nnc5c4)[C@@H](C)C2)C3)c1 (stereo partly drawn) [Cpd 96, 1H-benzotriazol-5-yl-[(2S)-4-[2-(3,5-dimethylanilino)-7,8-dihydro-5H-pyrido[4,3-d]pyrimidin-6-yl]-2-methyl-1-piperidyl]methanone]",0.01 to 100 nM
26,"Cc1cc(C)cc(Nc2ncc3c(n2)CCN([C@@H]2CCN(C(=O)c4ccc5[nH]nnc5c4)[C@H](C)C2)C3=O)c1 [Cpd 97, 6-[(2R,4R)-1-(1H-benzotriazole-5-carbonyl)-2-methyl-4-piperidyl]-2-(3,5-dimethylanilino)-7,8-dihydropyrido[4,3-d]pyrimidin-5-one]",100 to 500 nM
27,"Cc1cc(C)cc(Nc2ncc3c(n2)CN(C2CCN(C(=O)c4ccc5[nH]nnc5c4)C(C)(C)C2)C3)c1 (stereo not drawn) [Cpd 100, 1H-benzotriazol-5-yl-[4-[2-(3,5-dimethylanilino)-5,7-dihydropyrrolo[3,4-d]pyrimidin-6-yl]-2,2-dimethyl-1-piperidyl]methanone]",0.01 to 100 nM
